Assay results from publication PMC8119466, “A screen of FDA-approved drugs identifies inhibitors of protein tyrosine phosphatase 4A3 (PTP4A3 or PRL-3)” (Scientific Reports, 2021).
Counter-ions that a name gives are not always drawn.

What was measured:
Assay type in all cases: biochemical
Conditions in all cases: FDA-approved drug screen
[1] = target: T1, recombinant PRL-1 (Homo sapiens, UniProt Q93096); experiment: In vitro phosphatase assay (DiFMUP hydrolysis), PRL-1; further: test concentration or dose not given here
T1 construct: 6xHis (N, cleaved yes); made in house; host or cells: E. coli One Shot BL21 Star
T1 sequence (Q93096 1-173): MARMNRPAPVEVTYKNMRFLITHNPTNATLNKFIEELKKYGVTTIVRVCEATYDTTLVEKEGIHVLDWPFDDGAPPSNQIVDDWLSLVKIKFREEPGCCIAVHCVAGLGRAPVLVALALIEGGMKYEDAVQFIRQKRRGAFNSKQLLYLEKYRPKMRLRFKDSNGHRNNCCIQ

[2] = target: T2, recombinant PRL-2 (Homo sapiens, UniProt Q12974); experiment: In vitro phosphatase assay (DiFMUP hydrolysis), PRL-2;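 further: PRL-2 activity read as DiFMUP hydrolysis after 20 min at room temperature with drug, enzyme first pre-reduced at 4 °C for 20 min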
T2 construct: 6xHis (N, cleaved yes); made in house; host or cells: E. coli One Shot BL21 Star
T2 sequence (Q12974 1-167): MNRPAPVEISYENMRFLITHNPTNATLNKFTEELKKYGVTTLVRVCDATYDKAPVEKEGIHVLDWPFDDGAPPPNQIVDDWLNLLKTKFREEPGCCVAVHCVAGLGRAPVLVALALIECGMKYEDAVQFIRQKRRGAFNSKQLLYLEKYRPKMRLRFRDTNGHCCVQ

[3] = target: T3, recombinant PRL-3 (Homo sapiens, UniProt O75365); experiment: In vitro phosphatase assay (DiFMUP hydrolysis), PRL-3; further: test concentration or dose not given here
T3 construct: 6xHis (N, cleaved yes); made in house; host or cells: E. coli One Shot BL21 Star
T3 sequence (O75365 whole entry): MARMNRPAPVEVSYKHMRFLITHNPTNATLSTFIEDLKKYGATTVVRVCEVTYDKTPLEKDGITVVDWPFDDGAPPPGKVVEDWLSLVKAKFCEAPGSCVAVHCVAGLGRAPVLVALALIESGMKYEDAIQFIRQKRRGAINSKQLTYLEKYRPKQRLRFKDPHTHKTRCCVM

Compound	% Phosphatase Activity (compared to DMSO) PRL-1 ([1]; activity compared to DMSO) [%]	% Phosphatase Activity (compared to DMSO) PRL-2 ([2]; activity compared to DMSO) [%]	% Phosphatase Activity (compared to DMSO) PRL-3 ([3]; activity compared to DMSO) [%]	% Phosphatase Activity (compared to DMSO) PRL-1 ([1]; compared to DMSO) [%]	% Phosphatase Activity (compared to DMSO) PRL-2 ([2]; compared to DMSO) [%]	% Phosphatase Activity (compared to DMSO) PRL-3 ([3]; compared to DMSO) [%]
CN[C@H]1CC[C@@H](c2ccc(Cl)c(Cl)c2)c2ccccc21 [Sertraline HCl]	96	101	75			
O=S(=O)([O-])CCSSCCS(=O)(=O)[O-].[Na+].[Na+] [Dimesna]				99	99	79
CN(C)CCC(c1ccccc1)c1ccccn1 (stereo not drawn) [Pheniramine Maleate]				98	104	70
COC(=O)/C=C/C(=O)OC [Dimethyl Fumarate]				106	115	83
CCCC1O[C@@H]2C[C@H]3[C@@H]4CCC5=CC(=O)C=C[C@]5(C)[C@H]4[C@@H](O)C[C@]3(C)[C@]2(C(=O)CO)O1 (stereo partly drawn) [Budesonide]				93	100	76
O=C(CCCCCCNC(=O)c1cnc(N(c2ccccc2)c2ccccc2)nc1)NO [Rocilinostat (ACY-1215)]				102	98	97
Cc1ccc(-n2nccn2)c(C(=O)N2CCN(c3nc4cc(Cl)ccc4o3)CC[C@H]2C)c1 [Suvorexant (MK-4305)]	86	78	89			
O=C1C(CC[S+]([O-])c2ccccc2)C(=O)N(c2ccccc2)N1c1ccccc1 (racemic) [(+/-)-Sulfinpyrazone]				88	95	82
CCOC(=O)CC(=O)N1CCSC1COc1ccccc1OC (stereo not drawn) [Moguisteine]				104	98	87
CCN(CCO)CCCC(C)Nc1ccnc2cc(Cl)ccc12 (stereo not drawn) [Hydroxychloroquine Sulfate]				96	100	100
CC(C)[C@H](N)C(=O)OCCOCn1cnc2c(=O)nc(N)[nH]c21.Cl [Valaciclovir HCl]	97	102	98			
CCN(CC)Cc1cc(Nc2ccnc3cc(Cl)ccc23)ccc1O.Cl.Cl.O.O [Amodiaquin (dihydrochloride dihydrate)]				84	74	77
NC(=O)OCC(COC(N)=O)c1ccccc1 [Felbamate]				103	97	71
CN(C)c1ccc(C(=C2C=CC(=[N+](C)C)C=C2)c2ccc(N(C)C)cc2)cc1 [Crystal Violet]				79	86	85
COCCCOc1ccnc(C[S+]([O-])c2nc3ccccc3[n-]2)c1C.[Na+] (stereo not drawn) [Rebeprazole sodium]				97	99	78
CC(C)c1nc(CN(C)C(=O)N[C@H](C(=O)N[C@@H](Cc2ccccc2)C[C@H](O)[C@H](Cc2ccccc2)NC(=O)OCc2cncs2)C(C)C)cs1 [Ritonavir]				103	108	90
Nc1nccs1 [Aminothiazole]				108	103	79

Compound	% Phosphatase Activity (compared to DMSO) PRL-1 ([1]; activity compared to DMSO) [%]	% Phosphatase Activity (compared to DMSO) PRL-2 ([2]; activity compared to DMSO) [%]	% Phosphatase Activity (compared to DMSO) PRL-3 ([3]; activity compared to DMSO) [%]	% Phosphatase Activity (compared to DMSO) PRL-1 ([1]; compared to DMSO) [%]	% Phosphatase Activity (compared to DMSO) PRL-2 ([2]; compared to DMSO) [%]	% Phosphatase Activity (compared to DMSO) PRL-3 ([3]; compared to DMSO) [%]
CN(C)CCC=C1c2ccccc2CCc2ccccc21 [Amitriptyline HCl]				92	101	89
C/C(=C\C(=O)OCCCCCCCCC(=O)O)C[C@@H]1OC[C@H](C[C@@H]2O[C@H]2[C@@H](C)[C@H](C)O)[C@@H](O)[C@H]1O [Mupirocin]				92	97	69
O=C(O)CCC(=O)Nc1ccc(S(=O)(=O)Nc2nccs2)cc1 [Succinylsulfathiazole]	85	97	85			
Nc1ccc(C(=O)[O-])c(O)c1.[Na+] [Sodium 4-Aminosalicylate]	90	119	69			
CCN(CC)C(=O)C1(c2ccccc2)CC1CN.Cl (stereo not drawn) [Milnacipran HCl]				114	107	80
CC1=C(C(=O)O)N2C(=O)[C@@H](NC(=O)[C@H](N)C3=CCC=CC3)[C@H]2SC1 [Cefradine]				95	76	102
COc1ccc([C@@H]2Sc3ccccc3N(CCN(C)C)C(=O)[C@@H]2OC(C)=O)cc1 [Diltiazem HCl]				94	111	124
NC(=O)C[S+]([O-])C(c1ccccc1)c1ccccc1 (stereo not drawn) [Modafinil]				91	92	82
Cc1nc(Nc2ncc(C(=O)Nc3c(C)cccc3Cl)s2)cc(N2CCN(CCO)CC2)n1 [Dasatinib Monohydrate]				97	79	98
C[C@H]1c2cccc(O)c2C(=O)C2=C(O)[C@]3(O)C(=O)C(C(N)=O)=C(O)[C@@H](N(C)C)[C@@H]3[C@@H](O)[C@@H]21 [Doxycycline HCl]				83	83	73
NC(=O)[C@@H](CCC(F)(F)F)N(Cc1ccc(-c2ncon2)cc1F)S(=O)(=O)c1ccc(Cl)cc1 [Avagacestat (BMS-708163)]				89	85	73
CN1CCC(=C2c3ccccc3CCc3sccc32)CC1.O=C(O)CC(O)C(=O)O [Pizotifen Malate]				114	109	95
Isosorbide				90	89	69
O=C1[C@H](CC[C@H](O)c2ccc(F)cc2)[C@@H](c2ccc(O)cc2)N1c1ccc(F)cc1 [Ezetimibe]				100	82	80
c1ccc(-c2ccc(C(c3ccccc3)n3ccnc3)cc2)cc1 (stereo not drawn) [Bifonazole]				86	108	94
Cc1cc(Nc2cc(N3CCN(C)CC3)nc(Sc3ccc(NC(=O)C4CC4)cc3)n2)n[nH]1 [VX-680 (Tozasertib, MK-0457)]	89	87	82			
Nc1nc(Cl)nc2c1ncn2[C@H]1C[C@H](O)[C@@H](CO)O1 [Cladribine]				98	93	82
